First: CCOCCOc1ccc(-c2ccc3c(c2)C=C(C(=O)Nc2ccc(CN(C)C4CCOCC4)cc2)CCN3C=O)cc1Cl [Compound 21, 7-[3-chloro4-(2-ethoxy)ethoxyphenyl]-1-formyl-N-[4-[[N-methyl-N-(tetrahydro-2H-pyran-4-yl)amino]methyl]phenyl]-2,3-dihydro-1H-1-benzazepine-4-carboxamide]
Second: CCCN1CCC(C(=O)Nc2ccc(CN(C)C3CCOCC3)cc2)=Cc2cc(-c3ccc(OCCOCC)cc3)ccc21 [Compound 25, 7-[4-(2-ethoxyethoxy)phenyl]-N-[4-[[N-methyl-N-(tetrahydro-2H-pyran-4-yl)amino]methyl]phenyl]-1-propyl-2,3-dihydro-1H-1-benzazepine-4-carboxamide]
The melting point of the first is higher: 198 to 200 °C for the first, 144 to 147 °C for the second.

Compared with `CN1CCC(C(=O)Nc2ccc(CN(C)C3CCOCC3)cc2)=Cc2cc(-c3ccc4c(c3)OCCO4)ccc21` [Compound 24, 7-(2,3-dihydro-1,4-benzodioxin-6-yl)-1-methyl-N-[4-[[N-methyl-N-(tetrahydro-2H-pyran-4-yl)amino]methyl]phenyl]-2,3-dihydro-1H-1-benzazepine-4-carboxamide], `CCCCOCCOc1ccc(-c2ccc3c(c2)C=C(C(=O)Nc2ccc(CN(C)C4CCOCC4)cc2)CCN3C2CC2)cc1` [Compound 31, 7-[4-(2-butoxyethoxy)phenyl]-1-cyclopropyl-N-[4-[[N-methyl-N-(tetrahydro-2H-pyran-4-yl)amino]methyl]phenyl]-2,3-dihydro-1H-1-benzazepine-4-carboxamide] is lower in melting point: 164 to 165 °C for the first, 117 to 120 °C for the second.

First: CCCCOCCOc1ccc(-c2ccc3c(c2)C=C(C(=O)Nc2ccc(CN(C)C4CCOCC4)cc2)CCN3)cc1 [Compound 28, 7-[4-(2-butoxyethoxy)phenyl]-N-[4-[[N-methyl-N-(tetrahydro-2H-pyran-4-yl)amino]methyl]phenyl]-2,3-dihydro-1H-1-benzazepine-4-carboxamide]
Second: CCCOCCOc1ccc(-c2ccc3c(c2)C=C(C(=O)Nc2ccc(CN(C)C4CCOCC4)cc2)CCN3C(=O)CC)cc1 [Compound 29, 1-propionyl-7-[4-(2-propoxyethoxy)phenyl]-N-[4-[[N-methyl-N-(tetrahydro-2H-pyran-4-yl)amino]methyl]phenyl]-2,3-dihydro-1H-1-benzazepine-4-carboxamide]
The melting point of the first is lower: 119 to 123 °C for the first, 167 to 169 °C for the second.

Compared with `CCCCOCCOc1ccc(-c2ccc3c(c2)C=C(C(=O)Nc2ccc(CN(C)C4CCOCC4)cc2)CCN3CC2CCCCC2)cc1` [Compound 34, 7-[4-(2-butoxyethoxy)phenyl]-1-cyclohexylmethyl-N-[4-[[N-methyl-N-(tetrahydro-2H-pyran-4-yl)amino]methyl]phenyl]-2,3-dihydro-1H-1-benzazepine-4-carboxamide], `CCCCOCCOc1ccc(-c2ccc3c(c2)C=C(C(=O)Nc2ccc(CN(C)C4CCOCC4)cc2)CCN3c2cnc(C)o2)cc1` [Compound 44, 7-[4-(2-butoxyethoxy)phenyl]-1-(2-methyloxazol-5-yl)-N-[4-[[N-methyl-N-(tetrahydro-2H-pyran-4-yl)amino]methyl]phenyl]-2,3-dihydro-1H-1-benzazepine-4-carboxamide] is higher in melting point: 115 to 117 °C for the first, 125 to 128 °C for the second.

`CCCCOCCOc1ccc(-c2ccc3c(c2)C=C(C(=O)Nc2ccc(CN(C)C4CCOCC4)cc2)CCN3c2cccc(OC)c2)cc1` [Compound 40, 7-[4-(2-butoxyethoxy)phenyl]-1-(3-methoxyphenyl)-N-(4-[[N-methyl-N-(tetrahydro-2H-pyran-4-yl)amino]methyl]phenyl]-2,3-dihydro-1H-1-benzazepine-4-carboxamide] and `CCCCOCCOc1ccc(-c2ccc3c(c2)C=C(C(=O)Nc2ccc(CN(C)C4CCOCC4)cc2)CCN3c2ccc(S(=O)(=O)N(C)C)cc2)cc1` [Compound 47, 7-[4-(2-butoxyethoxy)phenyl]-1-(N,N-dimethyl-4-sulfamoylphenyl)-N-[4-[[N-methyl-N-(tetrahydro-2H-pyran-4-yl)amino]methyl]phenyl]-2,3-dihydro-1H-1-benzazepine-4-carboxamide] cannot be ordered by melting point: 94 to 97 °C for the first, 94 to 98 °C for the second.

— US6936602B1, “Benzazepine derivatives, process for the preparation of the same and uses thereof” (Takeda Chemical Industries, Ltd., priority 1999, dated 2005)
